Measurements as given in PMC6125541, “Bioequivalence of a Fixed-Dose Combination Tablet of the Complete Two-Drug Regimen of Dolutegravir and Rilpivirine for Treatment of HIV-1 Infection” (Antimicrobial Agents and Chemotherapy, 2018).

Experiments:
[1] = cited from earlier work
[2] = Phase I open-label randomized 2-way crossover bioequivalence study, plasma pharmacokinetics of DTG and RPV; format: in vivo, healthy adults; conditions: blind sample size reestimation after 57 participants
Excerpt: This phase I study (ViiV-clinicalstudyregister.com identifier 201676) utilized an open-label, randomized, 2-way crossover design at a single center (Quintiles, Overland Park, KS, USA) (Fig. 2). The total duration of the study was approximately 8 weeks from the time of screening to the last follow-up visit. A crossover design was selected for this study to allow within-participant comparisons to be performed, thereby reducing the number of participants required for the study. Rilpivirine has a long half-life (∼50 h) ([15]); therefore, a 21-day washout between doses and a long pharmacokinetic sampling period were implemented to ensure that predose concentrations were negligible and that pharmacokinetic parameters could be well estimated.
The reference treatment consisted of DTG 50-mg tablets (Tivicay; ViiV Healthcare, Research Triangle Park, NC, USA), which were identical in composition to the commercial form except for a different film coat color, and commercial RPV 25-mg tablets (Edurant; Janssen Therapeutics, Titusville, NJ, USA). The test treatment was the FDC tablet with DTG at 50 mg and RPV at 25 mg (Juluca; ViiV Healthcare, Research Triangle Park, NC, USA).
Participants were randomly assigned 1:1 to 1 of 2 treatment sequences according to a randomization schedule generated before the start of the study. […]

[3] = design: method as in PMID 23979733; conditions: DTG 50 mg once daily and RPV 25 mg once daily with a moderate-fat meal; cited from earlier work
[4] = design: method as in PMID 24798770; conditions: cited from earlier work

| Compound | Half-life [1] [h] | Decrease in absorption after fasting versus a normal-fat meal ([1]; fasting vs normal-fat meal) | Observed within-participant coefficient of variation (CVw) of Cmax [2] [%] | Change in AUC0–t or Cmax on coadministration [3] | Plasma exposure in the fed state [4] |
| --- | --- | --- | --- | --- | --- |
| Cc1cc(/C=C/C#N)cc(C)c1Nc1ccnc(Nc2ccc(C#N)cc2)n1 [RPV, rilpivirine] | ~50 | approximately 40% | 32.9 | no significant change | – |
| C[C@@H]1CCO[C@H]2Cn3cc(C(=O)NCc4ccc(F)cc4F)c(=O)c(O)c3C(=O)N12 [DTG, dolutegravir] | – | – | 14.8 | no significant change | increase |
